Laboratory results reported in patent publication US8530507B2, “Use of levo-ornidazole in the preparation of anti-anaerobic bacteria infection drugs” (priority 2005, dated 2013).

Columns and labels:
[1] = tested on: Kunming mice; assay: Acute toxicology test, LD50 in mice (Bliss method); type: in vivo; details: for Number of dead animals: 10 animals
Procedure: Kunming mice, half males and half females, with body weights of 18˜22 g, were administered the testing drug solution by injection 8 hours after fasting. The death status of animals was consecutively observed for 14 days after administration.

[2] = tested on: Beagle dogs; details: dog, in vivo, iv, 200 mg/kg
Text: 2. Toxicity Test in Beagle Dogs (Non-Rodent) After Intravenous Administration of L-ornidazole for Two Weeks
Beagle dogs, 4 dogs in each group with half females and half males, were divided into L-, D-, and racemic ornidazole groups.

[3] = tested on: bacteroides (including Escherichia coli) infection; assay: Abdominal infection model in mice, ED50; type: in vivo, Kunming white mice; details: death observed 7 days
Procedure: (§1) Kunming white mice, body weight of 20±2 g, half males and half females. 10 mice in each dose group with half females and half males. Abdominal infection models were prepared with the entire animal (mice) and treatments were conducted with the testing drugs. The therapeutical efficacy was observed and expressed as ED50 (half effective dose). Drugs were administered twice by oral gavage (administered immediately after infection for one and 6 hours after infection for the other one). The death status of animals was observed consecutively for seven days after infection and being treated.

[4] = tested on: peptostreptococcus (including Escherichia coli); assay: Abdominal infection model in mice, ED50; type: in vivo, Kunming white mice; details: death observed 7 days
Procedure: as §1

[5] = In vivo pharmacokinetics in Beagle dogs; details: both sexes, dog, beagle dogs, individual intravenous dose 13 mg/kg, plasma
Procedure: The clinical dose of ornidazole is 500 mg for human. By calculating, based on body surface area, the pharmacokinetic experimental dose in Beagle dogs was 13 mg/kg in vivo. Six adult beagle dogs (half males and half females, body weight of 9˜11.5 kg) were randomly divided into three groups. According to crossover design, intravenous injection of L-, D-, and racemic ornidazole were administered in turn to each dog every other week (with one week washout period in between). 2 ml of blood was collected from the vein located at the forelimb of the dogs before drug administration and 0.083, 0.5, 1.0, 2.0, 4.0, 6.0, 8.0, 12.0, 16.0, 24.0 hours after drug administration, which was then placed in the heparinized tube, followed by centrifugation to obtain the plasma. Plasma concentration of drug was determined by HPLC. Pharmacokinetics parameters were estimated using the non-compartmental models. The corresponding pharmacokinetics parameters were obtained by BAPP2.0 using the data of plasma concentration of blood with time obtained above.

[6] = tested on: mice; assay: Effects on spontaneous activities in mice; type: in vivo; details: for spontaneous activity compared with the vehicle control group: recorded at 0.5, 1, 2, 3 and 4 hours
Procedure: Chlorpromazine was administered at dose of […] in the positive control group, and the same volume of propylene glycol containing 0.9% sodium chloride injection was administered in the vehicle control group. Spontaneous activity was recorded at 0.5, 1, 2, 3 and 4 hours after drug administration. The injection volume was 0.2 ml/10 g and the administration rate was 0.2 ml/10 sec.

[7] = tested on: mice; assay: Hypnotic effect of intravenous injection in mice (righting reflex); type: in vivo; details: both, mouse, in vivo, iv, 160 mg/kg, 30 min
Procedure: White mice, half males and half females, fasted for eight hours. The disappearance of righting reflex in mice was observed. The number of animals who lost their righting reflex was recorded in 30 minutes after drug administration.

[8] = tested on: mice; assay: Effect on the coordination of balancing in mice; type: in vivo; details: intravenous injection
Procedure: Experiments were conducted in 9 administration groups, L-, D- and racemic ornidazole were administered to them at doses of 40, 80 and 160 mg/kg. Positive control group received chlorpromazine at a dose of 3 mg/kg.

[9] = tested on: Kunming mice; assay: Acute toxicology test, LD50 in mice (Bliss method); type: in vivo; details: oral gavage; for Number of dead animals: 10 animals
[10] = tested on: mice; assay: Effect on the hypnotic effect induced by sodium thiopental in mice; details: 40 mg/kg sodium thiopental i.p. 30 minutes later
Procedure: The same volume of 0.9% sodium chloride injection containing propylene glycol was administered in the vehicle control group. 30 minute after drug administration, 40 mg/kg of sodium thiopental was administered to mice by intraperitoneal injection. The time for the loss of righting reflex and the time for the recovery were recorded. The injection volume was 0.2 ml/10 g, the administration rate was 0.2 ml/10 sec.

Q: For `Cc1ncc([N+](=O)[O-])n1CC(O)CCl` (racemic) [racemic ornidazole, ornidazole], which Death rate ([1]; intraperitoneal, 887.4 mg/kg) is on record?
A: 0%

Q: What about the “Probability units (Y)” value ([1]; intraperitoneal, 887.4 mg/kg) of the same compound?
A: 3.39

Q: And the “Number of dead animals” value ([1]; intraperitoneal, 887.4 mg/kg)?
A: 0

Q: And the Death rate ([1]; intraperitoneal, 1044 mg/kg)?
A: 30%

Q: What about the “Probability units (Y)” value ([1]; intraperitoneal, 1044 mg/kg) of the same compound?
A: 4.42

Q: What about the “Number of dead animals” value ([1]; intraperitoneal, 1044 mg/kg) of the same compound?
A: 3

Q: What about the Death rate ([1]; intraperitoneal, 1228 mg/kg) of the same compound?
A: 80%

Q: What about the “Probability units (Y)” value ([1]; intraperitoneal, 1228 mg/kg) of the same compound?
A: 5.46

Q: And the “Number of dead animals” value ([1]; intraperitoneal, 1228 mg/kg)?
A: 8

Q: What about the Death rate ([1]; intraperitoneal, 1445 mg/kg) of the same compound?
A: 100%

Q: And the “Probability units (Y)” value ([1]; intraperitoneal, 1445 mg/kg)?
A: 6.49

Q: And the “Number of dead animals” value ([1]; intraperitoneal, 1445 mg/kg)?
A: 10

Q: What about the Death rate ([1]; intraperitoneal, 1700 mg/kg) of the same compound?
A: 100%

Q: And the “Probability units (Y)” value ([1]; intraperitoneal, 1700 mg/kg)?
A: 7.52

Q: What about the “Number of dead animals” value ([1]; intraperitoneal, 1700 mg/kg) of the same compound?
A: 10

Q: What about the Death rate ([1]; intravenous, 243 mg/kg) of the same compound?
A: 0%

Q: What about the “Probability units (Y)” value ([1]; intravenous, 243 mg/kg) of the same compound?
A: 3.22

Q: And the “Number of dead animals” value ([1]; intravenous, 243 mg/kg)?
A: 0

Q: And the Death rate ([1]; intravenous, 270 mg/kg)?
A: 30%

Q: And the “Probability units (Y)” value ([1]; intravenous, 270 mg/kg)?
A: 4.06

Q: What about the “Number of dead animals” value ([1]; intravenous, 270 mg/kg) of the same compound?
A: 3

Q: And the Death rate ([1]; intravenous, 300 mg/kg)?
A: 50%

Q: What about the “Probability units (Y)” value ([1]; intravenous, 300 mg/kg) of the same compound?
A: 4.90

Q: What about the “Number of dead animals” value ([1]; intravenous, 300 mg/kg) of the same compound?
A: 5

Q: What about the Death rate ([1]; intravenous, 333 mg/kg) of the same compound?
A: 50%

Q: What about the “Probability units (Y)” value ([1]; intravenous, 333 mg/kg) of the same compound?
A: 5.73

Q: What about the “Number of dead animals” value ([1]; intravenous, 333 mg/kg) of the same compound?
A: 5

Q: What about the Death rate ([1]; intravenous, 370 mg/kg) of the same compound?
A: 100%

Q: And the “Probability units (Y)” value ([1]; intravenous, 370 mg/kg)?
A: 6.57

Q: What about the “Number of dead animals” value ([1]; intravenous, 370 mg/kg) of the same compound?
A: 10

Q: What about the Death rate ([1]; oral gavage, 655.4 mg/kg) of the same compound?
A: 0%

Q: And the “Probability units (Y)” value ([1]; oral gavage, 655.4 mg/kg)?
A: 3.20

Q: What about the Death rate ([1]; oral gavage, 819.2 mg/kg) of the same compound?
A: 20%

Q: And the “Probability units (Y)” value ([1]; oral gavage, 819.2 mg/kg)?
A: 4.20

Q: What about the Death rate ([1]; oral gavage, 1024 mg/kg) of the same compound?
A: 70%

Q: And the “Probability units (Y)” value ([1]; oral gavage, 1024 mg/kg)?
A: 5.19

Q: What about the “Probability units (Y)” value ([1]; oral gavage, 1280 mg/kg) of the same compound?
A: 6.19

Q: What about the Death rate ([1]; oral gavage, 1600 mg/kg) of the same compound?
A: 100%

Q: What about the “Number of dead animals” value ([1]; oral gavage, 1600 mg/kg) of the same compound?
A: 10

Q: And the “number of Purkinje cells in cerebellum (histological examination)” value [2]?
A: No reduction in the number of Purkinje cells and cellular degeneration was observed

Q: And the ED50 ([3]; Bacteroides, oral gavage twice (immediately and 6 hours after infection), read-out: ED50 (half effective dose))?
A: 39.9 mg/kg

Q: What about the “95% CI of ED50” value ([3]; oral gavage twice) of the same compound?
A: 51.9˜30.7 mg/kg

Q: And the ED50 ([4]; Peptostreptococcus, oral gavage twice (immediately and 6 hours after infection), read-out: ED50 (half effective dose))?
A: 49.1 mg/kg

Q: What about the “95% CI of ED50” value ([4]; oral gavage twice) of the same compound?
A: 61.1˜39.4 mg/kg

Q: What about the half-life ([5]; HPLC, non-compartmental, read-out: t1/2 (half life) (converted)) of the same compound?
A: 5.55 ± 3.12 h

Q: What about the AUC(0-t) ([5]; read-out: AUC0-t (area under curve)) of the same compound?
A: 76.7 ± 10.8 µg·h/mL

Q: And the clearance ([5]; read-out: Cl (clearance) (converted))?
A: 23.8 mL/min

Q: And the MRT ([5]; read-out: MRT (mean retention time of drugs))?
A: 8.01 ± 3.42 h

Q: And the Vd ([5]; read-out: Vβ (elimination volume of distribution))?
A: 11.2 ± 3.96 L

Q: And the “recovery of spontaneous activity” value ([6]; 40 mg/kg intravenous)?
A: gradually become normal after 2 hours

Q: And the “spontaneous activity compared with the vehicle control group” value ([6]; 40 mg/kg intravenous)?
A: reduced significantly 1 hour after administration

Q: What about the “recovery of spontaneous activity” value ([6]; 80 mg/kg intravenous) of the same compound?
A: gradually become normal after 3 hours

Q: What about the “spontaneous activity compared with the vehicle control group” value ([6]; 80 mg/kg intravenous) of the same compound?
A: reduced significantly at 0.5, 1 and 2 hours

Q: What about the “recovery of spontaneous activity” value ([6]; 160 mg/kg intravenous) of the same compound?
A: gradually become normal after 4 hours

Q: What about the “spontaneous activity compared with the vehicle control group” value ([6]; 160 mg/kg intravenous) of the same compound?
A: reduced significantly at 0.5, 1, 2 and 3 hours

Q: What about the “number of mice with loss in righting reflex” value [7] of the same compound?
A: 6 mice

Q: And the “effect on the coordination and balance (number of falling animals)” value ([8]; 160 mg/kg)?
A: significant effect

Q: And the “effect on the coordination and balance, compared with the vehicle control group” value ([8]; doses of 40 and 80 mg/kg)?
A: no significant effect

Q: And the “Number of dead animals” value ([9]; 655.4 mg/kg)?
A: 0

Q: What about the “Number of dead animals” value ([9]; 819.2 mg/kg) of the same compound?
A: 2

Q: And the “Number of dead animals” value ([9]; 1024 mg/kg)?
A: 7

Q: What about the Death rate ([9]; 1280 mg/kg) of the same compound?
A: 90%

Q: And the “Number of dead animals” value ([9]; 1280 mg/kg)?
A: 9

Q: What about the “Probability units (Y)” value ([9]; 1600 mg/kg) of the same compound?
A: 7.19

Q: And the “sleep latency induced by sodium thiopental, compared with the vehicle control group” value ([10]; 40 mg/kg intravenous)?
A: no significant reduction

Q: What about the “sleep latency induced by sodium thiopental, compared with the vehicle control group” value ([10]; 80 mg/kg intravenous) of the same compound?
A: significantly reduced
